Here are results for 2 compounds from PMC6631119, “Nasal Administration and Plasma Pharmacokinetics of Parathyroid Hormone Peptide PTH 1-34 for the Treatment of Osteoporosis” (Pharmaceutics, 2019).

Like-named read-outs stand apart in the source and are kept apart here. Bounds are passed on as bounds.

A short description of data set [1]: Healthy human volunteer plasma pharmacokinetics of PTH 1-34 (open cross-over, ELISA). The format is in vivo. Particulars: human. As to the method: An open cross-over clinical IMP (investigative medicinal product) study was conducted in seven healthy female subjects aged over 55 years (mean age 67.7, range 58 to 81 years). Each participant provided informed consent in accordance with ethical committee requirements and good clinical practice. Pre-study screening assessments were carried out within 21 days of the participants receiving their first dose (Supplementary Materials: Section S1). Inclusion and exclusion criteria were applied (Supplementary Materials: Section S2). Participants were admitted to the study centre on the morning of dosing, having abstained from alcohol and smoking for at least 24 h previously and fasted from midnight. Participants were given a light meal on arrival. A cannula was then positioned in the participant’s arm or hand to facilitate the collection of blood samples. The pre-dose sample was taken. Participants received a single subcutaneous injection of 20 μg teriparatide into the abdomen at their first trial visit. Following a seven day wash out period, each participant self-administered 90 μg PTH 1-34 from the nasal spray formulation using the Rexam SP270 nasal spray device; the patients had previously been trained in operation of the Rexam device. Any episodes of sneezing after administration of the nasal formulation were recorded. The nasal spray formulation contained Tc-99m-DTPA, 3–5 MBq per Rexam SP270 nasal spray dose, resulting in an effective radiation dose of less than 0.14 mSv to each participant.
Following either subcutaneous or intranasal dosing, 10 mL blood samples (Becton Dickinson sodium heparin) were taken at 5, 15, 30, 60 120, 180, 240, 300 and 360 min. After each sample was taken, the cannula was flushed with 10 mL 0.9% saline. Blood was stored on ice and centrifuged within 30 min to prepare plasma (4 °C, 1100–1300 g, 10 min). These samples were stored at −20 °C before dispatching to Simbec Research Ltd. (Merthyr Tydfil, UK) for quantification by validated ELISA, in compliance with The UK Good Laboratory Practice Regulations 1999 (Statutory Instrument No. 310 6) and subsequent amendment, OECD Principles of Good Laboratory Practice (Paris 1998) and EC Commission Directive 2004/10/EC of February 2004.
Pharmacokinetic data were analysed using Phoenix® WinNonlin® 5.1 (Certara USA, Inc., Princeton, NJ, USA) from quantified PTH 1-34 in the plasma, using recorded sampling times. Summary statistics (mean, median, SD, coefficient of variation [CV%], minimum, maximum, n) and the following plasma pharmacokinetic parameters were calculated: • Cmax • Tmax • Terminal half-life (t1/2) • AUC to 2 h (AUC0–2h) • AUC to last measured time point (AUClast) and corresponding Frel for nasal formulation

The conditions of data set [2]: cited from earlier work.
The conditions of data set [3]: human volunteers, nasal powder formulations with Solutol HS15 compared to subcutaneous injection of hGH; cited from earlier work. From the text:
With the aim of improving upon the pharmacokinetics of the liquid nasal spray in humans, our continued research evaluated a bioadhesive powder formulation within a large animal (ovine) model. This is a model known to be highly representative of intranasal drug delivery that closely replicates the clinical findings. […] Likewise, we have published o ...

For data set [4] the following is noted: conscious rats, nasal liquid formulation with Solutol HS15 (10%), first 2 h after administration; cited from earlier work.
Where [5] appears, read: human, subcutaneous injection, estimated.

One may read the Tmax as the time from dosing to the highest level. For orientation: Cmax means the highest concentration seen after dosing. Turning to `CC[C@H](C)[C@H](NC(=O)[C@H](CCC(=O)O)NC(=O)[C@H](CO)NC(=O)[C@@H](NC(=O)[C@@H](N)CO)C(C)C)C(=O)N[C@@H](CCC(N)=O)C(=O)N[C@@H](CC(C)C)C(=O)N[C@@H](CCSC)C(=O)N[C@@H](Cc1cnc[nH]1)C(=O)N[C@@H](CC(N)=O)C(=O)N[C@@H](CC(C)C)C(=O)NCC(=O)N[C@@H](CCCCN)C(=O)N[C@@H](Cc1cnc[nH]1)C(=O)N[C@@H](CC(C)C)C(=O)N[C@@H](CC(N)=O)C(=O)N[C@@H](CO)C(=O)N[C@@H](CCSC)C(=O)N[C@@H](CCC(=O)O)C(=O)N[C@@H](CCCN=C(N)N)C(=O)N[C@H](C(=O)N[C@@H](CCC(=O)O)C(=O)N[C@@H](Cc1c[nH]c2ccccc12)C(=O)N[C@@H](CC(C)C)C(=O)N[C@@H](CCCN=C(N)N)C(=O)N[C@@H](CCCCN)C(=O)N[C@@H](CCCCN)C(=O)N[C@@H](CC(C)C)C(=O)N[C@@H](CCC(N)=O)C(=O)N[C@@H](CC(=O)O)C(=O)N[C@H](C(=O)N[C@@H](Cc1cnc[nH]1)C(=O)N[C@@H](CC(N)=O)C(=O)N[C@@H](Cc1ccccc1)C(=O)O)C(C)C)C(C)C` [teriparatide], in data set [1] (female, plasma, sc, 20 ug, healthy female volunteers aged over 55 y, single 20 μg teriparatide subcutaneous injection into abdomen (Forsteo pen), plasma ELISA, mean of n = 7), the Tmax was 21.4 min. Besides, the AUC(0-t) in data set [1] (female, plasma, sc, 20 ug, healthy female volunteers aged over 55 y, single 20 μg teriparatide subcutaneous injection into abdomen (Forsteo pen), plasma ELISA, mean of n = 7, read-out: AUC0–2h (converted)) was 0.29 ng·h/mL. The AUC(0-t) in data set [1] (female, plasma, sc, 20 ug, healthy female volunteers aged over 55 y, single 20 μg teriparatide subcutaneous injection into abdomen (Forsteo pen), plasma ELISA, mean of n = 7, read-out: AUC0–last (converted)) is 0.345 ng·h/mL. In addition, the Cmax in data set [1] (female, plasma, sc, 20 ug, healthy female volunteers aged over 55 y, single 20 μg teriparatide subcutaneous injection into abdomen (Forsteo pen), plasma ELISA, mean of n = 7, read-out: Cmax) is 0.253 ng/mL. The “time by which teriparatide concentrations returned to zero” value in data set [1] (20 μg teriparatide subcutaneous injection) is listed as at most 6 h. For the same compound, in data set [1] (20 μg teriparatide subcutaneous injection, mean), the “elimination t1/2” value is reported as “approximately 1 h”. Further, in data set [1] (sc, 20 ug, healthy female volunteers aged over 55 y, single 20 μg teriparatide subcutaneous injection into abdomen (Forsteo pen), plasma ELISA, mean of n = 7, read-out: t½), the half-life was found to be 64.8 min. Moreover, the “absolute bioavailability of subcutaneous injection” value in data set [2] (human subjects, subcutaneous injection into the abdominal wall, intravenous injection 100%) is given as “up to 95%”. In addition, in data set [2] (setting [5]), the “prolongation in the time to reach peak concentration (Tmax), thigh as opposed to abdomen” value is listed as 1.5 min; the “reduction in maximum plasma teriparatide concentrations (Cmax), thigh as opposed to abdomen” value was 18%; the “slower rate of absorption, injection into the thigh as opposed to the abdomen” value is listed as 21%.

With “hGH: human growth hormone (MW 22kDa), given nasally with Solutol HS15 in earlier studies”, the values for the relative bioavailability entry in data set [3] and in data set [4] were “about 3%” and 49%, respectively.
